# From ChEMBL document CHEMBL3132842, “Synthesis of metergoline analogues and their evaluation as antiplasmodial agents” (Medchemcomm, 2014)
# How the values were obtained:
# Plasmodium falciparum [1] = assay: Antiplasmodial activity against chloroquine-sensitive Plasmodium falciparum NF54 assessed as reduction in parasite growth by parasite lactate dehydrogenase assay; format: functional, organism-based
# CHO = assay: Cytotoxicity against CHO cells by MTT assay; format: cell-based; settings: Cricetulus griseus
# [2] = Selectivity index, ratio of IC50 for CHO cells to IC50 for chloroquine-sensitive Plasmodium falciparum NF54; format: toxicity, cell-based; settings: hamster, read-out: Ratio IC50
# Plasmodium falciparum [3] = assay: Antiplasmodial activity against Plasmodium falciparum after 48 hrs by NIH quantitative high throughput screen assay; format: functional, organism-based
smiles,measurement,setting,value
CC(=O)c1ccc(C(=O)NC[C@@H]2C[C@@H]3c4cccc5c4c(cn5C)C[C@H]3N(C)C2)cc1,IC50,Plasmodium falciparum [1],12.3 µM
same,IC50,CHO,152 µM
same,selectivity ratio,[2],12
CN1C[C@H](CNC(=O)C2CCCCN2)C[C@@H]2c3cccc4c3c(cn4C)C[C@H]21 (stereo not given in full),IC50,Plasmodium falciparum [1],1.23 µM
same,IC50,CHO,16.6 µM
same,selectivity ratio,[2],13
CN1C[C@H](CNC(=O)c2cccnc2)C[C@@H]2c3cccc4c3c(cn4C)C[C@H]21,IC50,Plasmodium falciparum [1],17.4 µM
same,IC50,CHO,162 µM
same,selectivity ratio,[2],9
CN1C[C@H](CNC(=O)c2ccncc2)C[C@@H]2c3cccc4c3c(cn4C)C[C@H]21,IC50,Plasmodium falciparum [1],17.5 µM
same,IC50,CHO,161 µM
same,selectivity ratio,[2],9
CN1C[C@H](CNC(=O)c2ccccn2)C[C@@H]2c3cccc4c3c(cn4C)C[C@H]21,IC50,Plasmodium falciparum [1],11.4 µM
same,IC50,CHO,112 µM
same,selectivity ratio,[2],10
CN1C[C@H](CNC(=O)c2cnccn2)C[C@@H]2c3cccc4c3c(cn4C)C[C@H]21,IC50,Plasmodium falciparum [1],8.4 µM
same,IC50,CHO,164 µM
same,selectivity ratio,[2],20
CN1C[C@H](CNC(=O)c2ccncn2)C[C@@H]2c3cccc4c3c(cn4C)C[C@H]21,IC50,Plasmodium falciparum [1],27.4 µM
CC(=O)NC[C@@H]1C[C@@H]2c3cccc4c3c(cn4C)C[C@H]2N(C)C1,IC50,Plasmodium falciparum [1],199 µM
CCC(=O)NC[C@@H]1C[C@@H]2c3cccc4c3c(cn4C)C[C@H]2N(C)C1,IC50,Plasmodium falciparum [1],40.3 µM
CCCC(=O)NC[C@@H]1C[C@@H]2c3cccc4c3c(cn4C)C[C@H]2N(C)C1,IC50,Plasmodium falciparum [1],32.1 µM
CCCCC(=O)NC[C@@H]1C[C@@H]2c3cccc4c3c(cn4C)C[C@H]2N(C)C1,IC50,Plasmodium falciparum [1],18.7 µM
same,IC50,CHO,105 µM
same,selectivity ratio,[2],6
CN1C[C@H](CNC(=O)C(C)(C)C)C[C@@H]2c3cccc4c3c(cn4C)C[C@H]21,IC50,Plasmodium falciparum [1],89.1 µM
CCCCCC(=O)NC[C@@H]1C[C@@H]2c3cccc4c3c(cn4C)C[C@H]2N(C)C1,IC50,Plasmodium falciparum [1],28.6 µM
CCCCCCC(=O)NC[C@@H]1C[C@@H]2c3cccc4c3c(cn4C)C[C@H]2N(C)C1,IC50,Plasmodium falciparum [1],9.1 µM
same,IC50,CHO,8.9 µM
same,selectivity ratio,[2],1
CCCCCCCC(=O)NC[C@@H]1C[C@@H]2c3cccc4c3c(cn4C)C[C@H]2N(C)C1,IC50,Plasmodium falciparum [1],3.9 µM
same,IC50,CHO,4.6 µM
same,selectivity ratio,[2],1
CCCCCCCCCC(=O)NC[C@@H]1C[C@@H]2c3cccc4c3c(cn4C)C[C@H]2N(C)C1,IC50,Plasmodium falciparum [1],5.2 µM
same,IC50,CHO,86.6 µM
same,selectivity ratio,[2],17
CN1C[C@H](CNC(=O)C2CCCC2)C[C@@H]2c3cccc4c3c(cn4C)C[C@H]21,IC50,Plasmodium falciparum [1],4.3 µM
same,IC50,CHO,144 µM
same,selectivity ratio,[2],33
CN1C[C@H](CNC(=O)c2ccc(OC(F)(F)F)cc2)C[C@@H]2c3cccc4c3c(cn4C)C[C@H]21,IC50,Plasmodium falciparum [1],4.2 µM
same,IC50,CHO,12.8 µM
same,selectivity ratio,[2],3
CN1C[C@H](CNC(=O)c2ccc([N+](=O)[O-])cc2)C[C@@H]2c3cccc4c3c(cn4C)C[C@H]21,IC50,Plasmodium falciparum [1],0.5 µM
same,IC50,CHO,5 µM
same,selectivity ratio,[2],11
CN1C[C@H](CNC(=O)c2ccc(Cl)cc2)C[C@@H]2c3cccc4c3c(cn4C)C[C@H]21,IC50,Plasmodium falciparum [1],1.3 µM
same,IC50,CHO,4.3 µM
same,selectivity ratio,[2],3
CN1C[C@H](CNC(=O)c2ccccc2Cl)C[C@@H]2c3cccc4c3c(cn4C)C[C@H]21,IC50,Plasmodium falciparum [1],14.6 µM
same,IC50,CHO,25 µM
same,selectivity ratio,[2],2
CN1C[C@H](CNC(=O)c2cccc(Cl)c2)C[C@@H]2c3cccc4c3c(cn4C)C[C@H]21,IC50,Plasmodium falciparum [1],4.9 µM
same,IC50,CHO,4.7 µM
same,selectivity ratio,[2],1
CN1C[C@H](CNC(=O)c2ccc(Cl)c(Cl)c2)C[C@@H]2c3cccc4c3c(cn4C)C[C@H]21,IC50,Plasmodium falciparum [1],4.8 µM
same,IC50,CHO,3.8 µM
same,selectivity ratio,[2],1
CN1C[C@H](CNC(=O)c2ccc(Cl)cc2Cl)C[C@@H]2c3cccc4c3c(cn4C)C[C@H]21,IC50,Plasmodium falciparum [1],8.3 µM
same,IC50,CHO,7.5 µM
same,selectivity ratio,[2],1
CN1C[C@H](CNC(=O)c2ccc(C#N)cc2)C[C@@H]2c3cccc4c3c(cn4C)C[C@H]21,IC50,Plasmodium falciparum [1],0.6 µM
same,IC50,CHO,104 µM
same,selectivity ratio,[2],188
CN1C[C@H](CNC(=O)c2ccc(S(C)(=O)=O)cc2)C[C@@H]2c3cccc4c3c(cn4C)C[C@H]21,IC50,Plasmodium falciparum [1],14.2 µM
same,IC50,CHO,222 µM
same,selectivity ratio,[2],16
COc1ccc(C(=O)NC[C@@H]2C[C@@H]3c4cccc5c4c(cn5C)C[C@H]3N(C)C2)cc1,IC50,Plasmodium falciparum [1],8.4 µM
same,IC50,CHO,7.4 µM
same,selectivity ratio,[2],1
CSc1ccc(C(=O)NC[C@@H]2C[C@@H]3c4cccc5c4c(cn5C)C[C@H]3N(C)C2)cc1,IC50,Plasmodium falciparum [1],4.7 µM
same,IC50,CHO,6 µM
same,selectivity ratio,[2],1
CCc1ccc(C(=O)NC[C@@H]2C[C@@H]3c4cccc5c4c(cn5C)C[C@H]3N(C)C2)cc1,IC50,Plasmodium falciparum [1],4.3 µM
same,IC50,CHO,5.6 µM
same,selectivity ratio,[2],1
CCCCc1ccc(C(=O)NC[C@@H]2C[C@@H]3c4cccc5c4c(cn5C)C[C@H]3N(C)C2)cc1,IC50,Plasmodium falciparum [1],2 µM
same,IC50,CHO,14.5 µM
same,selectivity ratio,[2],7
CN(C)c1ccc(C(=O)NC[C@@H]2C[C@@H]3c4cccc5c4c(cn5C)C[C@H]3N(C)C2)cc1,IC50,Plasmodium falciparum [1],33.8 µM
same,IC50,CHO,132 µM
same,selectivity ratio,[2],4
CN1C[C@H](CN)C[C@@H]2c3cccc4c3c(cn4C)C[C@H]21,IC50,Plasmodium falciparum [1],3.6 µM
same,IC50,CHO,26.1 µM
same,selectivity ratio,[2],7
CN1C[C@H](CNC(=O)c2ccccc2)C[C@@H]2c3cccc4c3c(cn4C)C[C@H]21,IC50,Plasmodium falciparum [1],24.4 µM
same,IC50,CHO,27 µM
same,selectivity ratio,[2],1
CN1C[C@H](CNC(=O)c2ccc(F)cc2)C[C@@H]2c3cccc4c3c(cn4C)C[C@H]21,IC50,Plasmodium falciparum [1],12.5 µM
same,IC50,CHO,7.3 µM
same,selectivity ratio,[2],0.6
CN1C[C@H](CNC(=O)c2ccc(Br)cc2)C[C@@H]2c3cccc4c3c(cn4C)C[C@H]21,IC50,Plasmodium falciparum [1],2.6 µM
same,IC50,CHO,5.1 µM
same,selectivity ratio,[2],2
CN1C[C@H](CNC(=O)c2ccc(I)cc2)C[C@@H]2c3cccc4c3c(cn4C)C[C@H]21,IC50,Plasmodium falciparum [1],3 µM
same,IC50,CHO,5.5 µM
same,selectivity ratio,[2],2
CN1C[C@H](CNC(=O)c2ccc(C(F)(F)F)cc2)C[C@@H]2c3cccc4c3c(cn4C)C[C@H]21,IC50,Plasmodium falciparum [1],2.7 µM
same,IC50,CHO,4.9 µM
same,selectivity ratio,[2],2
C[C@H]1[C@H](OC(=O)CCC(=O)O)O[C@@H]2O[C@@]3(C)CC[C@H]4[C@H](C)CC[C@@H]1[C@@]24OO3 [ARTESUNATE],IC50,Plasmodium falciparum [1],2.8 ng/mL
CC[C@H]1CN2CCc3cc(OC)c(OC)cc3[C@@H]2C[C@@H]1C[C@H]1NCCc2cc(OC)c(OC)cc21 [EMETINE],IC50,CHO,0.05 µM
CN1C[C@H](CNC(=O)OCc2ccccc2)C[C@@H]2c3cccc4c3c(cn4C)C[C@H]21 [METERGOLINE],IC50,Plasmodium falciparum [1],3.7 µM
same,IC50,CHO,16.6 µM
same,selectivity ratio,[2],4.5
same,IC50,Plasmodium falciparum [3],7.4 µM
